Data on 17 molecules can be found in patent US8691818B2, “Cyclic triazo and diazo sodium channel blockers” (University Of Greenwich, priority 2008, dated 2014).

In data set [1] the target is T1, DiHydroFolate Reductase (DHFR) (Rattus norvegicus, UniProt Q920D2).
T1 construct: from tissue; host or cells: rat liver homogenate supernatant
T1 sequence (Q920D2 1-187): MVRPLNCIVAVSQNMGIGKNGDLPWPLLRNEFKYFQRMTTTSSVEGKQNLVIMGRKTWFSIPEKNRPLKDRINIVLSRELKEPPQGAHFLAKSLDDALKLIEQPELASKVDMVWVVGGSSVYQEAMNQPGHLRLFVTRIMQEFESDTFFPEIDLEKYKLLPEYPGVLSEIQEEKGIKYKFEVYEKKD
In words: Inhibition of binding of [3H]methotrexate to rat liver homogenate supernatant. Particulars: for inhibition at 125 µM: read-out: [3H]mtx binding (% inhibition @ 125 μM). The procedure, abridged: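 Displacement of [3H]methotrexate binding to rat liver homogenate supernatant, prepared at 4 °C in pH 6.0 phosphate buffer with 15 mM dithiothreitol. Values are mean±sem over the number of experiments shown.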

The test system of data set [2] is 0.4 mm slices of rat hippocampus. In words: tissue or blood. The data set is classed as cell-based. Particulars: Rattus norvegicus; 30 μM; iodoacetate 400 μM insult; slice ATP; read-out: % protection (v 1 μM TTX) (mean ± sem) (no. of expt's).
The target in data set [3] is T2, hERG (Homo sapiens, UniProt Q12809). The data set is described as follows: hERG: inhibition of binding of [3H]astemizole to HEK-293 cells expressing human recombinant hERG. Particulars: for inhibition at 10 µM: human, probe [3H]astemizole. (In general: Block of hERG is tested as a sign of cardiac risk.)
The subject of data set [4] is sodium channel. In words: [14C]guanidine flux: veratrine-evoked uptake of [14C]guanidine into rat forebrain synaptosomes (primary sodium channel assay). Particulars: 30° for 2½ min. Type of data set: biochemical. The method in brief: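 Synaptosomal fraction from male Wistar rat forebrain (without cerebellum/medulla), 20-25 mg wet weight/ml. Veratrine-evoked [14C]guanidine uptake at 30° for 2½ min across a compound concentration range; IC50 from concentration-effect curves, mean±sem.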

A short description of data set [5]: Rat microsome stability. The data set is classed as in vitro ADME. Particulars: 1 μM, rat liver microsomes. As to the method:
Compounds were sent to BioFocus for measurement of their stability@1 μM concentration following incubation with rat liver microsomes for 40 minutes@37°.
Background: Liver microsomes are vesicles of endoplasmic reticulum, rich in cytochrome P450 enzymes.

The subject of data set [6] is L-Type Calcium Channels. In words: L-type calcium channels: inhibition of binding of [3H]nitrendipine to rat cerebral cortex membranes. Particulars: for L-type Ca2+ % inhibition @ 10 μM: [3H]nitrendipine binding; for IC50: read-out: L-type Ca2+ IC50 (μM) (extrapolated from 10 μM inh'n), extrapolated assuming binding slope 1.0.
Data set [7] concerns Sodium Channel, Site 2. The data set is classed as binding, Wistar Rat. Particulars: read-out: [3H]BTX-B binding Extrapolated IC50.
For data set [8], the target named is T2, hERG.
In data set [9] the target is T2, hERG. In words: in vitro.

pIC50: −log10 of the molar value. Where two headings read alike, the source gives them in different places. Some results are limits rather than exact numbers.

For orientation: inhibition means the relative decrease from the control value, in per cent. As usually defined, the pIC50 is −log10 of the IC50, conventionally taken in molar units. Usually melting point stands for the temperature, or range, at which the solid turns liquid. A word on the IC50: it is the concentration that inhibits the measured activity by half.

T2 sequence (Q12809 whole entry): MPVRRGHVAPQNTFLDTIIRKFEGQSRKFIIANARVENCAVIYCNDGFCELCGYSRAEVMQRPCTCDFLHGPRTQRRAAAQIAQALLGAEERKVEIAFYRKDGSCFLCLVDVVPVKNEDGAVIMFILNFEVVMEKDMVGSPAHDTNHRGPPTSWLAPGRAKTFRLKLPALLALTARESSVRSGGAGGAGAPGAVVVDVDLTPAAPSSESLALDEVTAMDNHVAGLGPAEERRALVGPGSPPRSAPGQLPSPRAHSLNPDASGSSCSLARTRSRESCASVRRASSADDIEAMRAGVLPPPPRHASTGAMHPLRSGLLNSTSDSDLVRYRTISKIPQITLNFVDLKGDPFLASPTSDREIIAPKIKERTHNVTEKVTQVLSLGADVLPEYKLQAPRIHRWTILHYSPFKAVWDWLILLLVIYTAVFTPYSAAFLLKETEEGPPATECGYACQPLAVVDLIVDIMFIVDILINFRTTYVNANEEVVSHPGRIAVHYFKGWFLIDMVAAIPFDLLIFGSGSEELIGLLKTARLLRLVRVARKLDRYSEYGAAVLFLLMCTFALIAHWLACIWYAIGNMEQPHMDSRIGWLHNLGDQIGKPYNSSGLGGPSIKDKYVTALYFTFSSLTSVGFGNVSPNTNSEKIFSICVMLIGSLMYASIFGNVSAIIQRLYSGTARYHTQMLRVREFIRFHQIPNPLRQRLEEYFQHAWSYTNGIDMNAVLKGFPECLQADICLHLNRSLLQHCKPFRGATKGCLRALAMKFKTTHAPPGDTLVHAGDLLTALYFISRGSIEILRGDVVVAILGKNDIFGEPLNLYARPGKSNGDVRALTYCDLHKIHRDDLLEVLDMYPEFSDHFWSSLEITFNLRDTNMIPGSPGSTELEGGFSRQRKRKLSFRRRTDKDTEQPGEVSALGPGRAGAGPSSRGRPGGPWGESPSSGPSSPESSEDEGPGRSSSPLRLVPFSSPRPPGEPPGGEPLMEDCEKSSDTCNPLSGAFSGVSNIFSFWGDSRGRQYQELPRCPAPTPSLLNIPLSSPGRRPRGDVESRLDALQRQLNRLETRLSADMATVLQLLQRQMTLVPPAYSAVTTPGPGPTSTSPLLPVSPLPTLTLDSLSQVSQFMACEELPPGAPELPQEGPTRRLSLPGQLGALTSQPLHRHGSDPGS

Take `Nc1nnc(-c2ccccc2OCc2ccccc2)c(N)n1` [CEN-160, 3,5-Diamino-6-(2-Benzyloxyphenyl)-1,2,4-triazine]: in data set [1] (125 μM), the inhibition at 125 µM is -11%. Further, the Emax at 30 µM in data set [2] amounted to 0%. Moreover, the negative-log IC50 (pIC50) in data set [3] is below 3.70; in [4] it was 3.53. Also, the inhibition at 10 µM in [3] was 0%.

The molecule `CCOc1ccc2ccccc2c1-c1nnc(N)nc1N` [CEN-110] came in with a melting point of 178 to 180 °C. For the same molecule, the inhibition at 125 µM in data set [1] (125 μM) was -23%. Besides, in data set [3], the pIC50 was below 3.70 and the inhibition at 10 µM was -12%. Also, the “Microsome stability % metabolized (40 min incubation 37°)” value (from here on “Microsome stability % metabolized”) in data set [5] stood at 61.5%. In data set [4], this molecule gave a negative logarithm of the IC50 (pIC50) of 3.87.

Consider `Cn1nc(-c2cc(C(F)(F)F)cc(C(F)(F)F)c2)c(N)nc1=N` [CEN-99, 5(3)-Amino-6-[3,5-(bis-trifluoromethyl)phenyl]-2,3(2,5)-dihydro-3(5)-imino-2-methyl-1,2,4-triazine methanesulfonate], for which, in data set [1] (125 μM), the inhibition at 125 µM was -1%. The pIC50 is 4.47 in data set [3] and 3.87 in data set [4]. In addition, the inhibition at 10 µM in [3] turned out to be 23%. Further, in data set [5], the “Microsome stability % metabolized” value is 0.0%.

`Nc1nnc(-c2sc(Cl)c(Cl)c2Cl)c(N)n1` [CEN-79, 3,5-Diamino-6-[2-(3,4,5 trichlorothienyl)]-1,2,4-triazine]: the melting point lay in the range of 263 to 265 °C. The inhibition at 125 µM in data set [1] (125 μM) is -1%. In data set [3], the pIC50 was below 3.70 and the inhibition at 10 µM was determined as 3%. Moreover, in [5], the “Microsome stability % metabolized” value is on record as 0.0%. Further, in data set [6], the “L-type Ca2+ % inhibition @ 10 μM” value is reported as 17% and the IC50 is 48.8 µM. This molecule gave a pIC50 in [4] of 3.68.

With `N=c1nc(N)c(-c2cccc(Cl)c2Cl)nn1CC(F)(F)F` [CEN-67, 5(3)-Amino-6-(2,3-dichlorophenyl)-2,3(2,5)-dihydro-3(5)-imino-2-(2,2,2-trifluoroethyl)-1,2,4-triazine], the inhibition at 125 µM in [1] (125 μM) worked out at 11%. Also, the Emax at 30 µM in data set [2] came out at 3%. Further, in data set [3], the pIC50 was 4.24 and the inhibition at 10 µM amounted to 15%. In addition, the “Microsome stability % metabolized” value in data set [5] stood at 0.5%. Moreover, in data set [6], the “L-type Ca2+ % inhibition @ 10 μM” value is given as −16% and the IC50 was above 190 µM. The same molecule gave a pIC50 in data set [4] of 5.37.

Turning to `Nc1cnc(-c2cc(Cl)cc(Cl)c2Cl)c(N)n1` [CEN-86, 2,6-Diamino-3-(2,3,5-trichlorophenyl)pyrazine], the inhibition at 125 µM in [1] (125 μM) is -5%. Besides, the Emax at 30 µM in data set [2] was 98%. Also, in data set [3], the pIC50 was below 3.70 and the inhibition at 10 µM came to 1%. For the same molecule, in data set [6], the “L-type Ca2+ % inhibition @ 10 μM” value was found to be 9% and the IC50 was 101 µM. Moreover, in [4], the pIC50 was 4.85.

On to `Nc1nnc(-c2ccc3ccccc3c2)c(N)n1` [CEN-73, 3,5-Diamino-6-(2-naphthyl)-1,2,4-triazine], for which the melting point was 215 to 216 °C. Moreover, the inhibition at 125 µM in data set [1] (125 μM) came to 5%. In addition, in data set [3], the pIC50 was below 3.70 and the inhibition at 10 µM came out at 3%. Further, the “Microsome stability % metabolized” value in data set [5] is on record as 62.5%. Besides, in data set [6], the “L-type Ca2+ % inhibition @ 10 μM” value came out at 8% and the IC50 was 115 µM. Further, the pIC50 in data set [4] was 4.09.

With `Nc1nnc(C(c2ccccc2)C2CCCC2)c(N)n1` (stereo not drawn) [CEN-163, 3,5-Diamino-6-(1-cyclopentyl-1-phenylmethy)-1,2,4-triazine], in data set [1] (125 μM), the inhibition at 125 µM was 13%. In data set [2], the Emax at 30 µM came out at 56%. Besides, in data set [3], the pIC50 was 4.09 and the inhibition at 10 µM was found to be 11%. Further, the pIC50 in data set [4] was 5.10.

On to `Nc1nnc(-c2cccc(Oc3ccccc3)c2)c(N)n1` [CEN-84, 3,5-Diamino-6-(3-phenoxphenyl)-1,2,4-triazine], for which the melting point was 152 to 153 °C. Also, the inhibition at 125 µM in data set [1] (125 μM) is -4%. Moreover, in data set [3], the negative logarithm of the IC50 (pIC50) was 4.00 and the inhibition at 10 µM was 9%. Moreover, the “Microsome stability % metabolized” value in [5] was determined as 33.0%. Further, in [6], the “L-type Ca2+ % inhibition @ 10 μM” value is 7% and the IC50 is 133 µM. Further, the pIC50 in data set [4] was 4.36.

Turning to `Nc1nnc(-c2cc(C(F)(F)F)cc(C(F)(F)F)c2)c(N)n1` [CEN-92, 3,5-Diamino-6-(3,5-bistrifluoromethylphenyl)-1,2,4-triazine], in data set [1] (125 μM, listed as 92, 125 µM), the “[3H]mtx binding (% inhibition @ 125 μM)” value came to 15%. Moreover, the Emax at 30 µM in data set [2] was found to be 32%. Further, in data set [3], the pIC50 is below 3.70 and the inhibition at 10 µM came out at 4%. Also, the “Microsome stability % metabolized” value in data set [5] is reported as 0.0%. In [6], the “L-type Ca2+ % inhibition @ 10 μM” value is given as 3% and the half-inhibitory concentration (IC50) is above 190 µM. This molecule had a pIC50 in data set [4] (listed as 92) of 3.84.

Take `Nc1nnc(C(c2ccccc2)c2ccccc2)c(N)n1` [CEN-130, 3,5-Diamino-6-(diphenylmethy)-1,2,4-triazine]: in data set [1] (125 μM), the inhibition at 125 µM was 2%. Moreover, the Emax at 30 µM in [2] stood at 39%. In data set [3], the pIC50 is below 3.70 and the inhibition at 10 µM was -2%. In data set [4], this molecule gave a pIC50 of 4.69.

As for `Nc1nnc(-c2cccc(Cl)c2Cl)c(N)n1` [CEN-1, Lamotrigine, reference compound], in data set [2], the Emax at 30 µM is 41%. Further, in data set [5], the “Microsome stability % metabolized” value was 0.5%. The figures for the pIC50 in data set [7] and in [4] were below 3.70 and 3.66, respectively.

As for “6-Adamantyl-3,5-diamino-1,2,4-triazine [CEN-83]”, the “[3H]mtx binding (% inhibition @ 125 μM)” value in [1] (125 μM) is listed as −5%. Besides, the results for the pIC50 in data set [8] and in data set [4] were 4.28 and 4.39, respectively.

`Nc1ncc(-c2cc(Cl)cc(Cl)c2Cl)c(N)n1` [CEN-47, 2,4-Diamino-5-(2,3,5-trichlorophenyl)pyrimidine, reference compound]: the Emax at 30 µM in data set [2] was 98%. In data set [3], the pIC50 was 4.46 and the inhibition at 10 µM was determined as 22%. In data set [4], this molecule showed a pIC50 of 4.88.

Turning to `Nc1nnc2c(n1)-c1cccc3cccc-2c13` [CEN-155], the inhibition at 125 µM in [1] is -6%. Further, the inhibition at 10 µM in data set [9] was found to be 22%. Further, the pIC50 is 4.46 in [3] and 4.47 in [4].

In the case of `N=c1nc(N)c(-c2ccccc2Oc2ccccc2)nn1CC(F)(F)F` [CEN-98, 5(3)-Amino-6-(2-phenoxyphenyl)-2,3(2,5)-dihydro-3(5)-imino-2-(1,1,1-trifluoroethyl)-1,2,4-triazine], the inhibition at 125 µM in data set [1] (125 μM) is 41%. Besides, the Emax at 30 µM in data set [2] came out at 11%. In data set [3], the pIC50 was 4.34 and the inhibition at 10 µM was found to be 18%. For the same molecule, the “Microsome stability % metabolized” value in data set [5] is 6.0%. Besides, in data set [6], the “L-type Ca2+ % inhibition @ 10 μM” value is on record as −18% and the IC50 was above 190 µM. Moreover, in data set [4], the pIC50 was 5.05.

On to `Nc1nnc(C2(c3ccc(Cl)cc3)CCC2)c(N)n1` [CEN-152, 3,5-Diamino-6-[1-(4-chlorophenyl)-1-cyclobuty]-1,2,4-triazine], for which, in data set [1] (125 μM), the inhibition at 125 µM was determined as 1%. In addition, in [2], the Emax at 30 µM is -10%. The same molecule gave a pIC50 in data set [4] of 3.32.
